Test system: σ1 receptor and the μ-opiod receptor
Test: μ and σ1 dual binding: combined class from the Ki of both radioligand assays
Parameters: species or system human; key to μ and σ1 dual binding: +: Both Ki-μ and Ki-σ1>=500 nM; ++: One Ki<500 nM while the other Ki is >=500 nM; +++: Both Ki-μ and Ki-σ1<500 nM; ++++: Both Ki-μ and Ki-σ1<100 nM
Conditions: transfected HEK-293 membranes (σ1), transfected CHO-K1 cell membranes (μ); for μ and σ1 dual binding: combined class for Ki-μ and Ki-σ1
Outline: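 Classes combine both Ki values, split at 500 nM and 100 nM. Human μ-opioid binding used 1 nM [3H]-DAMGO on CHO-K1 membranes (27 °C, 60 min, pH 7.4, naloxone 10 μM for NSB); human σ1 used 5 nM [3H](+)-pentazocine on HEK-293 membranes (37 °C, 120 min, pH 8, haloperidol 10 μM for NSB).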

| Structure (SMILES) | μ and σ1 dual binding | Ki range for both μ and σ1 (dual-binding class) [nM] |
| --- | --- | --- |
| COc1cccnc1-n1cc(CN2CCC(c3cccc(O)c3)CC2)nn1 [Example 219, 3-(1-((1-(3-methoxypyridin-2-yl)-1H-1,2,3-triazol-4-yl)methyl)piperidin-4-yl)phenol] | ++ |  |
| Oc1ccc(-n2cc(CN3CCC(c4cccc(O)c4)CC3)nn2)nc1 [Example 220, 6-(4-((4-(3-hydroxyphenyl)piperidin-1-yl)methyl)-1H-1,2,3-triazol-1-yl)pyridin-3-ol] | ++ |  |
| Oc1ccc(C2CCN(Cc3cn(-c4ccccc4)nn3)CC2)cc1 [Example 221, 4-(1-((1-phenyl-1H-1,2,3-triazol-4-yl)methyl)piperidin-4-yl)phenol] |  | < 500 |
| Oc1ccccc1C1CCN(Cc2cn(-c3ccccc3)nn2)CC1 [Example 222, 2-(1-((1-phenyl-1H-1,2,3-triazol-4-yl)methyl)piperidin-4-yl)phenol] |  | < 500 |
| Oc1cccc(C2CCN(Cc3cn(-c4cc(F)ccc4F)nn3)CC2)c1 [Example 223, 3-(1-((1-(2,5-difluorophenyl)-1H-1,2,3-triazol-4-yl)methyl)piperidin-4-yl)phenol] |  | < 100 |
| Cc1ccc(F)c(-n2cc(CN3CCC(c4cccc(O)c4)CC3)nn2)c1 [Example 224, 3-(1-((1-(2-fluoro-5-methylphenyl)-1H-1,2,3-triazol-4-yl)methyl)piperidin-4-yl)phenol] |  | < 100 |
| c1ccc(-n2cc(CN3CCC(c4cccc(Nc5nccs5)c4)CC3)nn2)cc1 [Example 225, N-(3-(1-((1-phenyl-1H-1,2,3-triazo1-4-yl)methyl)piperidin-4-yl)phenyl)thiazol-2-amine] |  | < 100 |
| Oc1cccc(C2CCN(Cc3cn(-c4ccc(C(F)(F)F)cc4F)nn3)CC2)c1 [Example 226, 3-(1-((1-(2-fluoro-4-(trifluoromethyl)phenyl)-1H-1,2,3-triazol-4-yl)methyl)piperidin-4-yl)phenol] |  | < 100 |
| O=S(=O)(Nc1cccc(C2CCN(Cc3cn(-c4ccccc4F)nn3)CC2)n1)C1CC1 [Example 228, N-(6-(1-((1-(2-fluorophenyl)-1H-1,2,3-triazol-4-yl)methyl)piperidin-4-yl)pyridin-2-yl)cyclopropanesulfonamid] |  | < 500 |
| c1ccc(Cn2cc(CN3CCC(c4cccc(Nc5nccs5)c4)CC3)nn2)nc1 [Example 229, N-(3-(1-((1-(pyridin-2-ylmethyl)-1H-1,2,3-triazol-4-yl)methyl)piperidin-4-yl)phenyl)thiazol-2-amine] |  | < 500 |
| c1ccc(Cn2cc(CN3CCC(c4cccc(Nc5nccs5)n4)CC3)nn2)nc1 [Example 230, N-(6-(1-((1-(pyridin-2-ylmethyl)-1H-1,2,3-triazol-4-yl)methyl)piperidin-4-yl)pyridin-2-yl)thiazol-2-amine] | ++ |  |
| c1ccc(Cn2cc(CN3CCC(c4cccc(Nc5ccccn5)c4)CC3)nn2)nc1 [Example 231, N-(3-(1-((1-(pyridin-2-ylmethyl)-1H-1,2,3-triazol-4-yl)methyl)piperidin-4-yl)phenyl)pyridin-2-amine] | ++ |  |
| Fc1ccc(Nc2cccc(C3CCN(Cc4cn(Cc5ccccn5)nn4)CC3)c2)nc1 [Example 232, 5-fluoro-N-(3-(1-((1-(pyridin-2-ylmethyl)-1H-1,2,3-triazol-4-yl)methyl)piperidin-4-yl)phenyl)pyridin-2-amine] |  | < 500 |
| Cc1ccc2cc(-n3cc(CN4CCC(c5cccc(O)c5)CC4)nn3)ccc2n1 [Example 233, 3-(1-((1-(2-methylquinolin-6-yl)-1H-1,2,3-triazol-4-yl)methyl)piperidin-4-yl)phenol] |  | < 500 |
